Experimental data taken from article PMC12933331, “A Cryptic Pocket Allosterically Modulates Oligosaccharide Binding to DC-SIGN” (JACS Au, 2026).
Changes are numbered by the printed parent chain. In names and notes the source's numbering stands. One block for each molecule: values may come before it.

Assays:
[1] = target: T1, DC-SIGN ECD M270F (Homo sapiens, UniProt Q9NNX6, M270F); assay: 19F R2-filtered NMR reporter assay, CaCl2 titration; conditions: binding of 0.1 mM ManNAcF3 reporter, R2,obs
T1 construct: acids 64 -404 of DC -SIGN; made in house
T1 sequence (Q9NNX6 64-404 M270F): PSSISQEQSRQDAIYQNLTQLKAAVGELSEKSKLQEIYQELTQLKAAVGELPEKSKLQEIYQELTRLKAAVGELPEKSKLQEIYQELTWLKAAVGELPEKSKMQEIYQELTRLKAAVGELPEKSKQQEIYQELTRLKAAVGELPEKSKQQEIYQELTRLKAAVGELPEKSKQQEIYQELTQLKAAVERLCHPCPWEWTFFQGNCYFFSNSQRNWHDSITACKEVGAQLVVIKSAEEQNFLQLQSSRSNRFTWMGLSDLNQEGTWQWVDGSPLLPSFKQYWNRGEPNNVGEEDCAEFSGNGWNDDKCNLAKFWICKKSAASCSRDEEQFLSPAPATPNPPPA
Method: (§1) 19F R2-filtered NMR reporter displacement assay. The 19F R2-filtered NMR reporter displacement assay was adjusted for CaCl2 titrations with DC-SIGN ECD as previously described.1 Apparent transverse relaxation rates R2,obs were obtained using the CPMG pulse sequence with a relaxation delay d1 of 2.0 s, acquisition time tacq of 0.8 s and a CPMG frequency νCPMG of 500 Hz.
(§2) DC-SIGN ECD was dialyzed four times against 25 mM HEPES, 150 mM NaCl (pH 7.4) to remove Ca2+ prior to measurements. Samples contained 25 μM DC-SIGN ECD in 25 mM HEPES, 150 mM NaCl (pH 7.4) supplemented with 10% D2O and 0.1 mM of the ManNAcF3 reporter molecule.
(§3) TFA at a concentration of 0.1 mM served as an internal reference. 512 scans were recorded to ensure sufficient signal to noise ratios. R2,obs values were obtained by fitting equation 5 to integrals I of the 19F resonance of the reporter at different relaxation times T with I0 as integral at T = 0 s. […]

[2] = target: T2, DC-SIGN ECD wildtype (Homo sapiens, UniProt Q9NNX6); assay: as above; conditions: binding of 0.1 mM ManNAcF3 reporter, R2,obs
T2 construct: acids 64 -404 of DC -SIGN; made in house
T2 sequence (Q9NNX6 64-404): T1 sequence (Q9NNX6 64-404 M270F) with F207M
Method: as §1, §2, §3

[3] = target: T3, DC-SIGN ECD T314A (Homo sapiens, UniProt Q9NNX6, T314A); assay: as above; conditions: binding of 0.1 mM ManNAcF3 reporter, R2,obs
T3 construct: acids 64 -404 of DC -SIGN; made in house
T3 sequence (Q9NNX6 64-404 T314A): T1 sequence (Q9NNX6 64-404 M270F) with F207M, T251A
Method: as §1, §2, §3

[4] = target: T1, DC-SIGN ECD M270F; assay: Plate-based horseradish peroxidase assay; format: binding
Method: (§4) chromatography. Purified protein was dialyzed against 25 mM HEPES, 150 mM NaCl, 10 mM CaCl2, pH 7.4, concentrated using a centrifugal spin filter, snap frozen and then stored at -80°C. […]
(§5) Plate-based horseradish peroxidase assay
(§6) General remarks. Unless stated otherwise, all reagents and buffers were obtained from Sigma Aldrich or Carl Roth. Measurements were done on a Enspire Multimode Plate Reader (PerkinElmer). GraphPad Prism was used for all data processing and analysis.
(§7) CaCl2 titration. 100 µg mL-1 DC-SIGN ECD were immobilized in immobilization buffer (25 mM HEPES, 150 mM NaCl, 25 mM CaCl 2, pH 7.4) overnight at 4°C on transparent Nunc Maxisorp 96-well plates (Thermo Fisher). Protein solution was removed, and plates were washed three times with immobilization buffer and then blocked for 2 hours at 4°C with blocking buffer (25 mM HEPES, 150 mM NaCl, 25 mM CaCl 2, 2% BSA, 0.01% Tween -20). Plates were washed twice with 25 mM HEPES, 150 mM NaCl, 5 mM EDTA, pH 7.4 and twice with 25 mM HEPES, 150 mM NaCl, pH 7.4 to remove residual Ca 2+. To titrate Ca2+, CaCl2 in 25 mM HEPES, 150 mM NaCl, pH 7.4 was serially diluted on the plate at a constant HRP concentration of 1 µg mL-1 and then incubated at RT for 2 hours. Following incubation, plates were washed three times with 25 mM HEPES, 150 mM NaCl, pH 7.4 and bound HRP was detected using a TMB substrate kit (Thermo Fisher) and 0.18 M H2SO4 according to manufacturer’s instructions. Absorption was […]
(§8) HRP titration. Immobilization and blocking were done as described above. After blocking, plates were washed three times with immobilization buffer. HRP in immobilization buffer was serially diluted on the plate at a constant concentration CaCl2 concentration of 25 mM and then incubated […]
(§9) at RT for 2 hours. Following incubation, plates were washed three times with immobilization buffer and HRP was detected as described above.
(§10) Immobilization and blocking were done as described above. After blocking, plates were washed three times with immobilization buffer. Mannose in immobilization buffer containing 1 µg mL-1 HRP was serially diluted on the plate and then incubated at RT for 2 hours.
(§11) Following incubation, plates were washed three times with immobilization buffer and HRP was detected as described above.
(§12) All conditions were measured in technical triplicates, averaged and normalized to the control well […]
(§13) IC50 and EC50 values and hill […]
(§14) slopes (nH) were obtained in a four-parameter fit according to equation (1).
(§15) Y = bottom + top − bottom (1)
(§16) With bottom and top representing the minimal and maximal response plateaus, respectively, Y as the observed response and X the logarithmic concentration of the ligand . […]
(§17) Biosynth. Spectra were processed in TopSpin 4.2.0 and data analysis was performed using CCPN Analysis 3.2.0 for 2D spectra and in MestreNova for 1D spectra.2 Further analysis was done using GraphPad Prism and in-house python scripts.

[5] = target: T2, DC-SIGN ECD wildtype; assay: Plate-based horseradish peroxidase assay; format: binding
Method: as §4, §5, §6, §7, §8, §9, §10, §11, §12, §13, §14, §15, §16, §17

[6] = target: T3, DC-SIGN ECD T314A; assay: Plate-based horseradish peroxidase assay; format: binding
[7] = target: T4, DC-SIGN CRD wildtype (Homo sapiens, UniProt Q9NNX6); assay: 1H-15N HSQC NMR titration (CSP fitting); format: binding
T4 construct: acids 253-404 of DC-SIGN; His-tag (N); made in house
T4 sequence (Q9NNX6 253-404): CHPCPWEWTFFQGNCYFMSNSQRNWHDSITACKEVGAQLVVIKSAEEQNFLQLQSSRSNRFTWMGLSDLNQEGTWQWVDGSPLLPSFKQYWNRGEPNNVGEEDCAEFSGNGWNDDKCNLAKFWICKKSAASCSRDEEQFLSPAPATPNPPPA
Method: (§18) 1H-15N HSQC NMR. 1H-15N HSQC NMR spectra were collected with 256 increments in the nitrogen and 24 scans per increment and 2048 points in the direct dimension. The relaxation delay d1 was set to 1.0 s. The W5 WATERGATE pulse sequence was used for solvent suppression.3, 4 Experiments were performed at a CRD concentration of 200 μM in 20 mM MES, 40 mM NaCl, 10 mM CaCl2 (pH 6.0) supplemented with 10% D 2O and, if applicable, varying concentrations of ligands. Samples of apo DC -SIGN CRD were prepared as described for 1H-13C HSQC NMR experiments. A previously published resonance assignment of DC-SIGN CRD was transferred to the nearest neighbor in a reference spectrum recorded without ligand.5 Unassigned, overlapping or disappearing peaks were not assigned.
(§19) CSPs induced by mutations or ligands were calculated as previously described according to […]
(§20) The empirical weighing factor a was set to 0.15 for all calculations.
(§21) Dissociation constants (K Ds) were determined in titration experiments at five ligand concentratio ns […]
(§22) in the fast exchange regime were used for the fitting procedure via equation 4 in a global two - […]
(§23) with CSP max corresponding to the CSP values upon saturation and the bound protein fraction p b […]
(§24) CHESPA was performed as previously described .7 The chemical shift vector between apo and holo wildtype DC -SIGN CRD was used as reference perturbation to calculate the vector product to […]

[8] = target: T5, DC-SIGN CRD T314A (Homo sapiens, UniProt Q9NNX6, T314A); assay: 1H-15N HSQC NMR titration (CSP fitting); format: binding; conditions: Lewis X titration, three concentrations, saturation not reached (estimated)
T5 construct: acids 253-404 of DC-SIGN; His-tag (N); made in house
T5 sequence (Q9NNX6 253-404 T314A): T4 sequence (Q9NNX6 253-404) with T62A
Method: as §18, §19, §20, §21, §22, §23, §24

[9] = target: T6, DC-SIGN CRD M270F (Homo sapiens, UniProt Q9NNX6, M270F); assay: 1H-15N HSQC NMR titration (CSP fitting); format: binding
T6 construct: acids 253-404 of DC-SIGN; His-tag (N); made in house
T6 sequence (Q9NNX6 253-404 M270F): T4 sequence (Q9NNX6 253-404) with M18F
Method: as §18, §19, §20, §21, §22, §23, §24

[10] = target: the molecule itself; assay: dynamic light scattering; purified ECDs; tetrameric state judged from mannan affinity chromatography, DLS and DSF together
[11] = constant HRP concentration (1 µg mL-1), read-out: EC50 (mean ± SD), CaCl2 titration
[12] = Lewis X titration, three concentrations, saturation not reached (estimated)
[13] = HRP titration at saturating CaCl2
[14] = saturating CaCl2 (25 mM), plate-immobilized ECD

Molecule: Oc1ccccc1 [phenol]
CSPs on addition of phenol ([7]; 20 mM phenol, holo 15N-labeled CRD, residues of cryptic pocket and upper cavity): strong chemical shift perturbations
CSPs on addition of phenol ([9]; 20 mM phenol, holo CRD, compared with wildtype): drastically reduced CSPs

B1: DC-SIGN extracellular domain (ECD) M270F (receptor, UniProt Q9NNX6 59-404, looked up)
chain: QVSKVPSSISQEQSRQDAIYQNLTQLKAAVGELSEKSKLQEIYQELTQLKAAVGELPEKSKLQEIYQELTRLKAAVGELPEKSKLQEIYQELTWLKAAVGELPEKSKMQEIYQELTRLKAAVGELPEKSKQQEIYQELTRLKAAVGELPEKSKQQEIYQELTRLKAAVGELPEKSKQQEIYQELTQLKAAVERLCHPCPWEWTFFQGNCYFFSNSQRNWHDSITACKEVGAQLVVIKSAEEQNFLQLQSSRSNRFTWMGLSDLNQEGTWQWVDGSPLLPSFKQYWNRGEPNNVGEEDCAEFSGNGWNDDKCNLAKFWICKKSAASCSRDEEQFLSPAPATPNPPPA
notes: DC-SIGN (CD209), extracellular domain with the point mutation M270F
stoichiometry N [10]: 4

B2: DC-SIGN extracellular domain (ECD) T314A (receptor, UniProt Q9NNX6 59-404, looked up)
chain: B1 chain with F212M, T256A
notes: DC-SIGN (CD209), extracellular domain with the point mutation T314A
stoichiometry N [10]: 4

Next, values leading:

hill slope, CaCl2 titration [1]: 1.4
EC50 ([1]; 25 μM ECD): 200 µM
hill slope, CaCl2 titration [2]: 2.0
EC50 ([2]; 25 μM ECD): 300 µM
hill slope, CaCl2 titration [3]: 1.7
EC50 ([3]; 25 μM ECD): 600 µM
EC50 [4, 11]: 700 ± 200 µM
EC50 [5, 11]: 1000 ± 400 µM
EC50 [6, 11]: 1200 ± 300 µM
Molecule: [Ca+2].[Cl-].[Cl-] [CaCl2]

Kd [7, 12]: 1100 ± 200 µM
Kd [8]: 1400 ± 100 µM
Kd [9, 12]: 600 ± 200 µM
Molecule: CC(=O)N[C@H]1C(O)O[C@H](CO)[C@@H](O[C@@H]2O[C@H](CO)[C@H](O)[C@H](O)[C@H]2O)[C@@H]1O[C@@H]1O[C@@H](C)[C@@H](O)[C@@H](O)[C@@H]1O (stereo partly drawn) [Lewis X, Lewis X trisaccharide]

increased affinity compared to the wildtype [4, 13]: 10 fold
EC50 (mean ± SD), HRP titration [4, 14]: 0.2 ± 0.2 μg mL^–1
EC50 (mean ± SD), HRP titration [5, 14]: 1.8 ± 1.0 mg/L
decreased affinity compared to the wildtype [6, 13]: 4 fold
EC50 (mean ± SD), HRP titration [6, 14]: 8.6 ± 0.1 μg mL^–1
Molecule: horseradish peroxidase [HRP]
